These results are taken from patent US9809604B2, “DGAT1 inhibitor and preparation method and use thereof” (Qingdao Huanghai Pharmaceutical Co., Ltd., priority 2013, dated 2017).

Read-outs that look alike come from different tables or passages of the source.

The target of the assay is T1, DGAT1 (Homo sapiens, UniProt O75907).
T1 sequence (O75907 1-488): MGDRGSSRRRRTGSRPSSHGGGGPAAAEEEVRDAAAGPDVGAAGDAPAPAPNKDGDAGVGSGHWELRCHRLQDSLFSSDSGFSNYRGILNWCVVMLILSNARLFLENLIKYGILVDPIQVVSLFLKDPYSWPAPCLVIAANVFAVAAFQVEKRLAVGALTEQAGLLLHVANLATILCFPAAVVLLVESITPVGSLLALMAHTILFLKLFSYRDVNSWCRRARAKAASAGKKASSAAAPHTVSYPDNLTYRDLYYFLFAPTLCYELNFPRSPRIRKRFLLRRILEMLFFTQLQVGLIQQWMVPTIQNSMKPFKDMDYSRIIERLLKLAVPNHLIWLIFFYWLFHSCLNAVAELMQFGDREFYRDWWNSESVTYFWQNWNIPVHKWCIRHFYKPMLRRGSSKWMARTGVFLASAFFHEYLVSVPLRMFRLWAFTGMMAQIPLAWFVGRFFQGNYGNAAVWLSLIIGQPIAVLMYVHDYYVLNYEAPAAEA
In words: Human DGAT1 IC50 enzyme assay (Flashplate, 14C-labeled acyl-CoA). It is filed as biochemical. The arrangement: made in house. Here is the method:
The ability of compounds to inhibit DGAT enzyme activity is determined by calculating IC50 values of test compounds. Ki values of DGAT1 are calculated as follows: Cheng-Prusoff equation: Ki=IC50/(1+[S]/Km)
(1) Human DGAT1 IC50 (nM) Experiment
Human DGAT1 activity was determined as follows:
Expressing human DGAT1 enzyme, used diacylglycerol and 14C-labeled acyl-CoA as the substrate, choose PE Company Flashplate testing board to build DGAT1 enzyme reaction system. 14C-labeled acyl-CoA binds to diacylglycerol by covalent bonding after enzymology reaction, and generates the product of 14C-labeled triglyceride. 14C-labeled acyl-CoA substrate is dissolved in reaction solution and 14C-labeled triglyceride product combine with phospholipids of Flashplate plate bottom layer, thus effectively separate labeled substrates and products. The radioactive of 14C-labeled triglyceride which is combined with phospholipid layer is counted, and the potencies of DGAT-1 inhibition for the compounds are determined by calculating the IC50 values.

The mark [1] stands for this setting: average of first and second, read-out: hDGAT1 IC50(nM) Average.
Where [2] appears, read: first determination, read-out: hDGAT1 IC50(nM) First.
[3] abbreviates: second determination, read-out: hDGAT1 IC50(nM) Second.

Consider `Nc1ncnc2c1C(=O)N(c1ccc3c(c1)CCC(OCC(F)(F)F)C3)CCO2` (single isomer, unassigned) [Compound 108 (peak2), 4-amino-6-(6-(2,2,2-trifluoroethoxy)-5,6,7,8-tetrahydonaphthalen-2-yl)-7,8-dihydropyrimido[5,4-f][1,4]oxazepin-5-(6H)-one], for which the IC50 (as a rule, the concentration that inhibits the measured activity by half) runs as follows: under setting [1], 52.6 nM; under setting [2], 56.4 nM; under setting [3], 48.8 nM.

Take `Nc1ncnc2c1C(=O)N(c1ccc3c(c1)CCC(OCC(F)(F)F)C3)CCO2` (single isomer, unassigned; peak1) [Compound 105 (peak1), 4-amino-6-(6-(2,2,2-trifluoroethoxy)-5,6,7,8-tetrahydonaphthalen-2-yl)-7,8-dihydropyrimido[5,4-f][1,4]oxazepin-5-(6H)-one]: the IC50 runs as follows: under setting [1], 73.3 nM; under setting [2], 103 nM; under setting [3], 43.3 nM.

Turning to `Nc1ncnc2c1C(=O)N(c1ccc(N3CCN(CC(=O)O)C3=O)c(Cl)c1)CCO2` [Compound 1, 2-(3-(4-(4-amino-5-oxo-7,8-dihydropyrimido[5,4-f][1,4]oxazepin-6(5H)-yl)-2-chlorophenyl)-2-oxoimidazolidin-1-yl)acetic acid], the half-inhibitory concentration (IC50) is 48.1 nM under setting [1], 53.3 nM under setting [2] and 43 nM under setting [3].

Turning to `Nc1ncnc2c1C(=O)N(c1ccc(N3CCN(CC(=O)O)C3=O)c(F)c1)CCO2` [Compound 2, 2-(3-(4-(4-amino-5-oxo-7,8-dihydropyrimido[5,4-f][1,4]oxazepin-6(5H)-yl)-2-fluorophenyl)-2-oximidazolidin-1-yl)acetate acid], the half-maximal inhibitory concentration (IC50) amounted to 52.9 nM under setting [1], 64.1 nM under setting [2] and 41.6 nM under setting [3].

For `Cc1cc(N2CCOc3ncnc(N)c3C2=O)ccc1N1CCN(CC(=O)O)C1=O` [Compound 3, 2-(3-(4-(4-amino-5-oxo-7,8-dihydropyrimido[5,4-f][1,4]oxazepin-6(5H)-yl)-2-methylphenyl)-2-oxoimidazolidin-1-yl)acetate acid], the 50% inhibitory concentration (IC50) is, setting by setting: under setting [1], 65.2 nM; under setting [2], 60.9 nM; under setting [3], 69.5 nM.

Regarding `CCc1cc(N2CCOc3ncnc(N)c3C2=O)cc(C)c1N1CCN(CC(=O)O)C1=O` [Compound 4, 2-(3-(4-(4-amino-5-oxo-7,8-dihydropyrimido[5,4-f][1,4]oxazepin-6(5H)-yl)-2-ethyl-6-methylphenyl)-2-oxoimidazolidin-1-yl)acetic acid], the concentration for half-maximal inhibition (IC50) reads like this: under setting [1], 39.5 nM; under setting [2], 46.2 nM; under setting [3], 32.9 nM.

As to `CCc1cc(N2CCOc3ncnc(N)c3C2=O)ccc1N1CCN(CC(=O)O)C1=O` [Compound 5, 2-(3-(4-(4-amino-5-oxo-7,8-dihydropyrimido[5,4-f][1,4]oxazepin-6(5H)-yl)-2-ethylphenyl)-2-oxoimidazolidin-1-yl)acetic acid], the IC50 is, setting by setting: under setting [1], 60.3 nM; under setting [2], 51.6 nM; under setting [3], 69 nM.

Turning to `Nc1ncnc2c1C(=O)N(c1ccc(N3CCN(CCC(=O)O)C3=O)c(Cl)c1)CCO2` [Compound 6], the concentration for half-maximal inhibition (IC50) by setting is: under setting [1], 31.5 nM; under setting [2], 24.4 nM; under setting [3], 38.5 nM.

On to `Nc1ncnc2c1C(=O)N(c1ccc(N3CCN(CC(=O)O)C3=O)c(OC(F)(F)F)c1)CCO2` [Compound 7, 2-(3-(4-(4-amino-5-oxo-7,8-dihydropyrimido[5,4-f][1,4]oxazepin-6(5H)-yl)-2-(trifluoromethoxy)phenyl)-2-oxoimidazolidin-1-yl)acetic acid], for which the IC50 is, setting by setting: under setting [1], 36.9 nM; under setting [2], 43.5 nM; under setting [3], 30.4 nM.

With `Nc1ncnc2c1C(=O)N(c1ccc(N3CCN(CC(F)(F)F)C3=O)c(Cl)c1)CCO2` [Compound 8, 4-amino-6-(3-chloro-4-(2-oxo-3-(2,2,2-trifluoroethyl)imidazolidin-1-yl)phenyl)-7,8-dihydropyrimido[5,4-f][1,4]oxazepin-5(6H)one], the 50% inhibitory concentration (IC50) under setting [1] was found to be 38.9 nM, the concentration for half-maximal inhibition (IC50) under setting [2] was determined as 41.9 nM and the IC50 under setting [3] came out at 35.9 nM.

With `CCc1cc(N2CCOc3ncnc(N)c3C2=O)cc(CC)c1N1CCN(CC(=O)O)C1=O` [Compound 19], the IC50 is, setting by setting: under setting [1], 101 nM; under setting [2], 136 nM; under setting [3], 66.5 nM.

On to `Nc1ncnc2c1C(=O)N(c1ccc(N3CCN(CC(=O)O)C3=O)c(C(F)(F)F)c1)CCO2` [Compound 25, 2-(3-(4-(4-amino-5-oxo-7,8-dihydropyrimido [5,4-f][1,4]oxazepin-6(5H)-yl)-2-(trifluoromethyl)phenyl)-2-oxoimidazolidin-1-yl)acetic acid], for which the concentration for half-maximal inhibition (IC50) under setting [1] was found to be 58.9 nM, the IC50 under setting [2] was 57.2 nM and the IC50 under setting [3] was determined as 60.7 nM.

As to `Cc1cc(N2CCOc3ncnc(N)c3C2=O)cc(F)c1N1CCN(CC(=O)O)C1=O` [Compound 26, 2-(3-(4-(4-amino-5-oxo-7,8-dihydropyrimido [5,4-f][1,4]oxazepin-6(5H)-yl)-2-fluoro-6-methylphenyl)-2-oxoimidazolidin-1-yl) acetic acid], the IC50 reads like this: under setting [1], 50.6 nM; under setting [2], 41.3 nM; under setting [3], 60 nM.

Consider `Cc1cc(N2CCOc3ncnc(N)c3C2=O)cc(Cl)c1N1CCN(CC(=O)O)C1=O` [Compound 27], for which the IC50 is, setting by setting: under setting [1], 62.4 nM; under setting [2], 69 nM; under setting [3], 55.7 nM.

On to `Nc1ncnc2c1C(=O)N(c1ccc(-n3ccn(CC(=O)O)c3=O)c(Cl)c1)CCO2` [Compound 28, 2-(3-(4-(4-amino-5-oxo-7,8-dihydropyrimido [5,4-f][1,4]oxazepin-6(5H)-yl)-2-chlorophenyl)-2-oxo-2,3-dihydro-1H-imidazol-1-yl)acetic acid], for which the IC50 by setting is: under setting [1], 41.8 nM; under setting [2], 45.6 nM; under setting [3], 37.9 nM.

For `CC(C)CN1CCN(c2ccc(N3CCOc4ncnc(N)c4C3=O)cc2Cl)C1=O` [Compound 29, 4-amino-6-(3-chloro-4-(3-isobutyl-2-oxoimidazolidin-1-yl)phenyl)-7,8-dihydropyrimido [5,4-f][1,4]oxazepin-5(6H)-one], the 50% inhibitory concentration (IC50) reads like this: under setting [1], 35.2 nM; under setting [2], 37.4 nM; under setting [3], 32.9 nM.

For `Nc1ncnc2c1C(=O)N(c1ccc(N3CCN(CC4CC4)C3=O)c(Cl)c1)CCO2` [Compound 30, 4-amino-6-(3-chloro-4-(3-(cyclopropylmethyl)-2-oxoimidazolidin-1-yl)phenyl)-7,8-dihydropyrimido [5,4-f][1,4]oxazepin-5(6H)-one], the 50% inhibitory concentration (IC50) by setting is: under setting [1], 24.4 nM; under setting [2], 25.4 nM; under setting [3], 23.4 nM.

For the molecule `CC(C)(F)CN1CCN(c2ccc(N3CCOc4ncnc(N)c4C3=O)cc2Cl)C1=O` [Compound 31, 4-amino-6-(3-chloro-4-(3-(2-fluoro-2-methylpropyl)-2-oxoimidazolidin-1-yl)phenyl)-7,8-dihydropyrimido[5,4-f][1,4]oxazepin-5(6H)-one], the 50% inhibitory concentration (IC50) reads like this: under setting [1], 23.5 nM; under setting [2], 23.6 nM; under setting [3], 23.4 nM.

Take `CC(C)(C(=O)O)n1cc(-c2ccc(N3CCOc4ncnc(N)c4C3=O)cc2Cl)cn1` [Compound 33, 2-(4-(4-(4-amino-5-oxo-7,8-dihydropyrimido[5,4-f][1,4]oxazepin-6(5H)-yl)-2-chlorophenyl)-1H-pyrazol-1-yl)-2-methylpropanoic acid]: the IC50 came to 36.8 nM under setting [1], 26.9 nM under setting [2] and 46.7 nM under setting [3].

For the molecule `CC(C(=O)O)n1cc(-c2ccc(N3CCOc4ncnc(N)c4C3=O)cc2Cl)cn1` (stereo not drawn) [Compound 34, 2-(4-(4-(4-amino-5-oxo-7,8-dihydropyrimido[5,4-f][1,4]oxazepin-6(5H)-yl)-2-chlorophenyl)-1H-pyrazol-1-yl) propanoic acid], the IC50 under setting [1] came out at 55.8 nM, the IC50 under setting [2] turned out to be 78 nM and the IC50 under setting [3] is 33.6 nM.

As for `Nc1ncnc2c1C(=O)N(c1ccc(-c3cnn(CCC(=O)O)c3)c(Cl)c1)CCO2` [Compound 35, 3-(4-(4-(4-amino-5-oxo-7,8-dihydropyrimido[5,4-f][1,4]oxazepin-6(5H)-yl)-2-chlorophenyl)-1H-pyrazol-1-yl)propanoic acid], the IC50 came out at 25.8 nM under setting [1], 24.8 nM under setting [2] and 26.7 nM under setting [3].

Take `Cc1nn(CC(=O)O)cc1-c1ccc(N2CCOc3ncnc(N)c3C2=O)cc1Cl` [Compound 36, 2-(4-(4-(4-amino-5-oxo-7,8-dihydropyrimido[5,4-f][1,4]oxazepin-6(5H)-yl)-2-chlorophenyl)-3-methyl-1H-pyrazol-1-yl)acetic acid]: the IC50 by setting is: under setting [1], 29.3 nM; under setting [2], 37.7 nM; under setting [3], 21 nM.
